Laboratory results reported in a compilation of properties of binary mixtures (doi:10.1021/acs.jpcb.5b11900).

Assay: xn = mol fraction of the nth substance listed
Settings: 101 kPa

CC[NH+](CC)CC.O=[N+]([O-])[O-] + CC[NH3+].O=[N+]([O-])[O-]
Settings | electrical conductivity [S/m] | viscosity [mPa·s]
293.15 K, x1 = 0.0499 | 1.67 | 46.6
293.15 K, x1 = 0.0999 | 1.45 | 51.2
293.15 K, x1 = 0.3995 | 0.71 | 90.2
293.15 K, x1 = 0.4472 | 0.62 | 100
293.15 K, x1 = 0.5003 | 0.56 | 108.1
293.15 K, x1 = 0.5485 | 0.56 | 105.4
298.15 K, x1 = 0.0499 | 1.96 | 39
298.15 K, x1 = 0.0999 | 1.71 | 42.5
298.15 K, x1 = 0.1997 | 1.36 | 51.1
298.15 K, x1 = 0.25 | 1.16 | 56.2
298.15 K, x1 = 0.2993 | 1.02 | 62.4
298.15 K, x1 = 0.3475 | 0.95 | 66.9
298.15 K, x1 = 0.3995 | 0.85 | 71.8
298.15 K, x1 = 0.4472 | 0.75 | 79.3
298.15 K, x1 = 0.5003 | 0.68 | 85.2
298.15 K, x1 = 0.5485 | 0.68 | 83.1
303.15 K, x1 = 0.0499 | 2.27 | 32.9
303.15 K, x1 = 0.0999 | 1.99 | 35.7
303.15 K, x1 = 0.149 | 1.77 | 37.9
303.15 K, x1 = 0.1997 | 1.59 | 42.5
303.15 K, x1 = 0.25 | 1.36 | 46.5
303.15 K, x1 = 0.2993 | 1.2 | 51.4
303.15 K, x1 = 0.3995 | 1.01 | 58.5
303.15 K, x1 = 0.4472 | 0.9 | 64.3
303.15 K, x1 = 0.5003 | 0.82 | 68.8
303.15 K, x1 = 0.5485 | 0.81 | 67
308.15 K, x1 = 0.0499 | 2.6 | 28.1
308.15 K, x1 = 0.0999 | 2.29 | 30.3
308.15 K, x1 = 0.149 | 2.05 | 32.1
308.15 K, x1 = 0.1997 | 1.84 | 35.7
308.15 K, x1 = 0.25 | 1.58 | 39
308.15 K, x1 = 0.2993 | 1.4 | 42.8
308.15 K, x1 = 0.3475 | 1.31 | 45.4
308.15 K, x1 = 0.3995 | 1.18 | 48.3
308.15 K, x1 = 0.4472 | 1.06 | 52.8
308.15 K, x1 = 0.5003 | 0.96 | 56.3
308.15 K, x1 = 0.5485 | 0.96 | 54.7
313.15 K, x1 = 0.0499 | 2.96 | 24.1
313.15 K, x1 = 0.0999 | 2.61 | 26
313.15 K, x1 = 0.149 | 2.35 | 27.7
313.15 K, x1 = 0.1997 | 2.12 | 30.7
313.15 K, x1 = 0.25 | 1.81 | 33
313.15 K, x1 = 0.2993 | 1.63 | 36.1
313.15 K, x1 = 0.3475 | 1.52 | 38.5
313.15 K, x1 = 0.5003 | 1.13 | 47.1
313.15 K, x1 = 0.5485 | 1.12 | 45.8
318.15 K, x1 = 0.0499 | 3.33 | 21
318.15 K, x1 = 0.0999 | 2.95 | 22.6
318.15 K, x1 = 0.149 | 2.66 | 23.7
318.15 K, x1 = 0.1997 | 2.41 | 26
318.15 K, x1 = 0.25 | 2.07 | 28.2
318.15 K, x1 = 0.2993 | 1.86 | 30.6
318.15 K, x1 = 0.3475 | 1.74 | 32.3
318.15 K, x1 = 0.3995 | 1.58 | 34.1
318.15 K, x1 = 0.4472 | 1.41 | 36.9
318.15 K, x1 = 0.5003 | 1.3 | 39.1
318.15 K, x1 = 0.5485 | 1.29 | 37.9
323.15 K, x1 = 0.0499 | 3.73 | 18.4
323.15 K, x1 = 0.149 | 2.99 | 20.6
323.15 K, x1 = 0.1997 | 2.71 | 22.5
323.15 K, x1 = 0.25 | 2.34 | 24.2
323.15 K, x1 = 0.2993 | 2.11 | 26.3
323.15 K, x1 = 0.3475 | 1.97 | 27.6
323.15 K, x1 = 0.4472 | 1.61 | 31.3
323.15 K, x1 = 0.5485 | 1.48 | 32.1
328.15 K, x1 = 0.0499 | – | 16.3
328.15 K, x1 = 0.0999 | – | 17.3
328.15 K, x1 = 0.1997 | – | 19.7
328.15 K, x1 = 0.25 | – | 21
328.15 K, x1 = 0.2993 | – | 22.8
328.15 K, x1 = 0.3475 | – | 23.9
328.15 K, x1 = 0.4472 | – | 26.9
333.15 K, x1 = 0.0499 | – | 14.4
333.15 K, x1 = 0.0999 | – | 15.3
333.15 K, x1 = 0.149 | – | 16.1
333.15 K, x1 = 0.25 | – | 18.4
333.15 K, x1 = 0.2993 | – | 19.9
333.15 K, x1 = 0.3475 | – | 21
333.15 K, x1 = 0.3995 | – | 22
333.15 K, x1 = 0.4472 | – | 23.5
338.15 K, x1 = 0.0499 | – | 12.9
338.15 K, x1 = 0.0999 | – | 13.7
338.15 K, x1 = 0.149 | – | 14.2
338.15 K, x1 = 0.1997 | – | 15.2
338.15 K, x1 = 0.25 | – | 16.3
338.15 K, x1 = 0.3475 | – | 18.2
338.15 K, x1 = 0.3995 | – | 19
338.15 K, x1 = 0.5003 | – | 21.2
338.15 K, x1 = 0.5485 | – | 20.5
343.15 K, x1 = 0.0999 | – | 12.3
343.15 K, x1 = 0.149 | – | 12.7
343.15 K, x1 = 0.1997 | – | 13.5
343.15 K, x1 = 0.25 | – | 14.5
343.15 K, x1 = 0.3475 | – | 16.1
343.15 K, x1 = 0.3995 | – | 16.8
343.15 K, x1 = 0.4472 | – | 17.8
343.15 K, x1 = 0.5003 | – | 19.3
343.15 K, x1 = 0.5485 | – | 17.9
348.15 K, x1 = 0.0499 | – | 10.5
348.15 K, x1 = 0.149 | – | 11.4
348.15 K, x1 = 0.1997 | – | 12.1
348.15 K, x1 = 0.25 | – | 13
348.15 K, x1 = 0.3475 | – | 14.3
348.15 K, x1 = 0.3995 | – | 14.9
353.15 K, x1 = 0.0999 | – | 9.6
353.15 K, x1 = 0.149 | – | 10.4
353.15 K, x1 = 0.1997 | – | 11
353.15 K, x1 = 0.25 | – | 11.7
353.15 K, x1 = 0.3475 | – | 13
353.15 K, x1 = 0.3995 | – | 13.5
353.15 K, x1 = 0.4472 | – | 14.2

CC[NH2+]CC.O=[N+]([O-])[O-] + CC[NH3+].O=[N+]([O-])[O-]
Settings | electrical conductivity [S/m] | viscosity [mPa·s]
293.15 K, x1 = 0.0499 | 1.8 | 44.4
293.15 K, x1 = 0.1499 | 1.69 | 45.4
293.15 K, x1 = 0.1999 | 1.55 | 49.7
293.15 K, x1 = 0.2501 | 1.59 | 46
293.15 K, x1 = 0.2998 | 1.55 | 45.6
298.15 K, x1 = 0.0499 | 2.1 | 37.2
298.15 K, x1 = 0.0998 | 2.02 | 36.2
298.15 K, x1 = 0.1499 | 1.99 | 37.9
298.15 K, x1 = 0.1999 | 1.83 | 41.3
298.15 K, x1 = 0.2998 | 1.87 | 37.9
298.15 K, x1 = 0.3501 | 1.72 | 41.2
303.15 K, x1 = 0.0499 | 2.43 | 31.5
303.15 K, x1 = 0.0998 | 2.34 | 30.6
303.15 K, x1 = 0.1499 | 2.31 | 31.9
303.15 K, x1 = 0.1999 | 2.12 | 34.7
303.15 K, x1 = 0.2501 | 2.18 | 32.2
303.15 K, x1 = 0.2998 | 2.18 | 31.9
303.15 K, x1 = 0.3501 | 2 | 34.5
308.15 K, x1 = 0.0998 | 2.69 | 26.2
308.15 K, x1 = 0.1499 | 2.64 | 27.3
308.15 K, x1 = 0.1999 | 2.44 | 29.4
308.15 K, x1 = 0.2501 | 2.5 | 27.4
308.15 K, x1 = 0.2998 | 2.5 | 27.2
308.15 K, x1 = 0.3501 | 2.3 | 29.2
313.15 K, x1 = 0.0499 | 3.16 | 23.2
313.15 K, x1 = 0.0998 | 3.06 | 22.4
313.15 K, x1 = 0.1499 | 3.01 | 23.4
313.15 K, x1 = 0.2501 | 2.84 | 23.4
313.15 K, x1 = 0.2998 | 2.84 | 23.3
318.15 K, x1 = 0.0499 | 3.55 | 20.2
318.15 K, x1 = 0.1999 | 3.15 | 21.8
318.15 K, x1 = 0.2501 | 3.2 | 20.4
318.15 K, x1 = 0.3501 | 2.97 | 21.6
323.15 K, x1 = 0.0499 | 3.97 | 17.8
323.15 K, x1 = 0.0998 | 3.85 | 17.3
323.15 K, x1 = 0.2501 | 3.59 | 17.8
323.15 K, x1 = 0.2998 | 3.59 | 17.8
323.15 K, x1 = 0.3501 | 3.34 | 18.8
328.15 K, x1 = 0.0499 | – | 15.7
328.15 K, x1 = 0.1499 | – | 15.8
328.15 K, x1 = 0.1999 | – | 16.7
328.15 K, x1 = 0.2501 | – | 15.7
328.15 K, x1 = 0.3501 | – | 16.5
333.15 K, x1 = 0.0499 | – | 13.9
333.15 K, x1 = 0.0998 | – | 13.6
333.15 K, x1 = 0.1499 | – | 14
333.15 K, x1 = 0.1999 | – | 14.7
333.15 K, x1 = 0.2501 | – | 13.9
333.15 K, x1 = 0.2998 | – | 13.9
333.15 K, x1 = 0.3501 | – | 14.6
338.15 K, x1 = 0.0499 | – | 12.5
338.15 K, x1 = 0.0998 | – | 12.1
338.15 K, x1 = 0.1499 | – | 12.5
338.15 K, x1 = 0.1999 | – | 13.1
338.15 K, x1 = 0.2501 | – | 12.5
338.15 K, x1 = 0.3501 | – | 13
343.15 K, x1 = 0.0998 | – | 10.8
343.15 K, x1 = 0.1999 | – | 11.9
343.15 K, x1 = 0.2501 | – | 11.2
343.15 K, x1 = 0.2998 | – | 10.9
343.15 K, x1 = 0.3501 | – | 11.7
348.15 K, x1 = 0.0998 | – | 9.8
348.15 K, x1 = 0.1499 | – | 10.1
348.15 K, x1 = 0.1999 | – | 10.7
348.15 K, x1 = 0.2501 | – | 10.1
348.15 K, x1 = 0.2998 | – | 9.6
348.15 K, x1 = 0.3501 | – | 10.5
353.15 K, x1 = 0.0499 | – | 9.2
353.15 K, x1 = 0.2501 | – | 9.14
353.15 K, x1 = 0.2998 | – | 8.69
